In patent US10336687B2, “Selected amide of Y-hydroxybutyric acid and uses thereof in the treatment of alcohol misuse” (priority 2015, dated 2019):
Where two headings read alike, the source gives them in different places. Marks after values point to notes of the source that are not given here.

How the values were obtained:
hippocampal slices [1] = assay: K+-evoked GABA and glutamate outflow in KCl stimulated hippocampal slices; assay type: cell-based, rat
Method: (§1) Based on previous results obtained for GET 73, which influences the aminoacidergic neurotransmission in the rat hippocampus, probably through a complex modulation of the metabotropic glutamate receptors subtype 5 (mGluR5) (Beggiato et al., 2013; Ferraro et al., 2011, 2013) the positional isomer ACGET61 was evaluated in vitro in hippocampal slices, by measuring GABA and glutamate levels in different experimental conditions.
Additional studies aimed at exploring the effect of ACGET61 (10 pM-10 μM) in KCl stimulated hippocampal slices were carried out.

[2] = tested on: Sardinian alcohol preferring (sP) rats; assay: Operant self-administration of alcohol, fixed ratio FR4; assay type: in vivo, rat
Excerpt: (§2) In these procedures sP rats were trained to self-administer alcohol or sucrose by pressing a lever, and the amount of work (lever pressing) requested to obtain alcohol, varied according with the aim of the single schedule of reinforcement, Fixed ratio (FR) or Progressive ratio (PR).
(§3) Sucrose solution (3% w/v) was systematically employed in these experiments as alternative reinforcer, in order to assess if test compounds exert a selective effect on the alcohol solution (15% v/v) self-administration.
(§4) In the FR the rat obtain alcohol or sucrose in response to four consecutive lever pressing (FR4), while in the PR the number of lever pressing necessary to obtain alcohol or sucrose increased progressively till the rat stop pressing the lever (Break point; BP). Each FR4 or PR/BP session lasted 30 minutes.

[3] = tested on: Sardinian alcohol preferring (sP) rats; assay: Maintenance of alcohol intake, 2-bottle free choice regimen between alcohol (10% v/v) and water; assay type: in vivo, rat; details: acute oral administration
Excerpt: Anti-alcohol profile of ACGET61 in Sardinian alcohol preferring (sP) rats Sardinian alcohol preferring (sP) rats represents one of the few rat lines selectively bred worldwide for high ethanol preference and consumption (Colombo et al., 2006) and are utilized in multiple experimental procedures validated for the evaluation of different aspects of alcohol drinking. These experimental procedures include Maintenance of alcohol intake, and Operant self-administration of alcohol.
In this procedure sP rats were exposed to a 2-bottle free choice regimen between alcohol (10% v/v) and water. Under this condition, the animals can choose between a bottle containing the alcohol solution and a bottle containing water, and voluntarily consume about 6 g/kg/day of alcohol, with a preference for alcohol of about 90%.

[4] = tested on: primary cultures of rat hippocampal neurons; assay type: cell-based; details: for Minimum effective concentration for neuroprotective effects: hippocampal neurons chronically exposed to ethanol, cell viability and ROS production
Excerpt: (§5) The neurotoxic effects of alcohol have been well documented, both in animals and humans, and the hippocampus represents a brain area particular sensitive to the detrimental effects of alcohol. Different preclinical models have been employed for studying the neurotoxic effects of alcohol. One of these models consists in exposing organotypic hippocampal cultures to alcohol, which exerts various effects, including a reduction in cell viability, and an increase in reactive oxygen species (ROS).
(§6) Briefly, primary cultures of rat hippocampal neurons were chronically exposed to ethanol (75 mM; 4 days) and the neuroprotective effects of ACGET61 were assessed by evaluating cell viability (MTT assay), and reactive oxygen species production (rhodamine 123 fluorescence).

[5] = tested on: Sardinian alcohol preferring (sP) rats; assay: Operant self-administration of alcohol, progressive ratio / break point (PR/BP); assay type: in vivo, rat; details: for Effective Doses mg/kg: PR/BP model, sP rats
Excerpt: as §2, §3, §4

mGluR5 [6] = target: T1, mGluR5 (Rattus norvegicus, UniProt P31424); assay: Increase in K+-evoked glutamate outflow induced by the mGluR5 receptor agonist CHPG in hippocampal slices; assay type: cell-based; details: CHPG 100 μM
T1 construct: from tissue; host or cells: hippocampal slices
T1 sequence (P31424 21-1203): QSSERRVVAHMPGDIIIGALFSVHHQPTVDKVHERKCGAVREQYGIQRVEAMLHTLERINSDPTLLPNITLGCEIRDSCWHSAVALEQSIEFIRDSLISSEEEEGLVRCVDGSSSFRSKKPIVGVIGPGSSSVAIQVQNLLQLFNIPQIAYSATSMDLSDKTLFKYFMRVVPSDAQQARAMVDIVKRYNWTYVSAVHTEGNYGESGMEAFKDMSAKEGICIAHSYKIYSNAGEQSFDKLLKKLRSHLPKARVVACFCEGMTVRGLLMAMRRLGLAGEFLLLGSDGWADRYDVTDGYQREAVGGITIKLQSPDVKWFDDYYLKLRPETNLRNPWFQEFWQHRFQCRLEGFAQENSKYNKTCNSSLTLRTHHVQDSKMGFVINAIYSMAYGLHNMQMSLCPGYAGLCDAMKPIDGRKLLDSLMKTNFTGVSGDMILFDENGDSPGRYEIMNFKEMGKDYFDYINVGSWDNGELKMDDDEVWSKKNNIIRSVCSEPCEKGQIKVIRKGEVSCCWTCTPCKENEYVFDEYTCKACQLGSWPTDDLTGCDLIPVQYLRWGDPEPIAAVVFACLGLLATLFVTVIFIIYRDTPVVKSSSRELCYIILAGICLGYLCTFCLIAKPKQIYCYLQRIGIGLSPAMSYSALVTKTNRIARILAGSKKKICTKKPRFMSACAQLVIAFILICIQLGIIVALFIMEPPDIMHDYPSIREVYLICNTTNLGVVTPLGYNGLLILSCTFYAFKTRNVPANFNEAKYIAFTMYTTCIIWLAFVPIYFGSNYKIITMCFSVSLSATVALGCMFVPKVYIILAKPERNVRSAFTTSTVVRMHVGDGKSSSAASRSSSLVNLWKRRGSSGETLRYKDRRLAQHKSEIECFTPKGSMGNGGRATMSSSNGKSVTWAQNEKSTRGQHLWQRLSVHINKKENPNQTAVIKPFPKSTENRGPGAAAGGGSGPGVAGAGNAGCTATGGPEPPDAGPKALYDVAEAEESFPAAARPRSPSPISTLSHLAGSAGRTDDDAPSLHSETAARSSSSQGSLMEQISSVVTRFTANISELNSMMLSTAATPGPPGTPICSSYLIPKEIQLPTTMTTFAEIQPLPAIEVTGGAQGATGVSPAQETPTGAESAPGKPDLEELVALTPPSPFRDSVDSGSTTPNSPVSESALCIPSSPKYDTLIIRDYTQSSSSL
Method: as §1
The interaction of ACGET61 with the mGluR5 agonist CHPG was explored in KCl stimulated hippocampal slices. […] Specifically, FIG. 5—KCl stimulated Hippocampal slices—K^+ evoked glutamate outflow. The effect of ACGET61 300 pM on the increase in glutamate outflow induced by CHPG 100 μM. ** p<0.01 vs Control; ^∘ p<0.05 vs ACGET61+CHPG.

hippocampal slices [7] = assay: Basal GABA and glutamate outflow in hippocampal slices; assay type: cell-based, rat; details: 10 and 100 μM
Method: as §1

[8] = tested on: primary cultures of rat hippocampal neurons; assay type: cell-based
Excerpt: as §5, §6
Ethanol exposure induced a significant increase in the ROS production (p<0.001), measured by the fluorescence emission of rhodamine 123.

[9] = tested on: Sardinian alcohol preferring (sP) rats; details: 2-bottle free choice model; cited from earlier work
[10] = cited from earlier work
mGluR5 [11] = target: T1, mGluR5; details: GET73, same model; cited from earlier work
[12] = FR4 model, sP rats, GET 73 tested up to 50
[13] = 0.01-10 μM, cultures not exposed to ethanol

COCCCC(=O)NCc1ccccc1C(F)(F)F [ACGET61, N-[(2-trifluoromethyl)benzyl]-4-methoxybutyramide]
K+-evoked glutamate outflow (hippocampal slices [1]; 100, 300, and 500 pM): modest non significant reduction | Effect on K+-evoked GABA and glutamate outflow (hippocampal slices [1]; concentrations between 10 nM and 10 μM): did not exert overt effects | K+-evoked GABA outflow (hippocampal slices [1]; highest concentration (10 μM)): significant decrease | Effect on FR4 operant self-administration of alcohol (lever responses, alcohol and sucrose intake) ([2]; 100 mg/kg, 30 min session, p<0.05 vs vehicle): selective reducing effect on the reinforcing properties of alcohol | Effective Doses [2, 12]: 100 mg/kg | Duration of effect ([3]; ACGET61, Maintenance model, sP rats): 24 h | Effect on water and food intake ([3]; 25 to 100 mg/kg): without affecting water and food intake | Cellular viability, compound by itself [4, 13]: did not affect cellular viability | Cell viability in ethanol exposed cultures ([4]; 0.1, 1, and 10 μM added 1 hour before and during ethanol 75 mM, 4 days, p<0.05 vs ethanol): prevented the ethanol-induced damage | Minimum effective concentration for neuroprotective effects [4]: 0.1 µM | Number of lever pressing and break point for alcohol ([5]; 50 and 100 mg/kg, PR, 30 min session): reduced | Response for sucrose ([5]; 50 and 100 mg/kg, PR, sucrose 3% w/v): able to reduce also the response for sucrose | Effective Doses mg/kg ([5]; for alcohol and sucrose): 50-100 * mg/kg | Effect on the increase in K+-evoked glutamate outflow exerted by CHPG (mGluR5 [6]; ACGET61 300 pM): able to counteract, at least in part | Concentration inhibiting CHPG-induced increase of glutamate in hippocampal slices (mGluR5 [6]; KCl stimulated slices): 300 pM | Effect on basal release of GABA and glutamate (hippocampal slices [7]): No effects | ROS production, compound by itself [8, 13]: did not affect ROS production | ROS production in ethanol exposed cultures ([8]; 0.1, 1, and 10 μM added 1 h before and during ethanol 75 mM, 4 days): prevented the ethanol-induced increase of ROS production

NCC(CC(=O)O)c1ccc(Cl)cc1 (stereo not shown) [baclofen]
Alcohol intake of sP rats [9]: reduced

O=C(O)CCCO [sodium oxybate]
Time to peak plasma concentration ([10]; after oral administration): 30 to 45 min | Bioavailability ([10]; in vivo): about 30% | Half-life ([10]; in vivo): about 30 minutes

O=C(O)CCCO [GHB, gamma-hydroxybutyric acid]
Alcohol intake of sP rats [9]: reduced

COCCCC(=O)NCc1ccc(C(F)(F)F)cc1 [GET 73, 4-methoxy-N-[[4-(trifluoromethyl)phenyl]methyl]-butanamide, reference compound]
Effective Doses mg/kg [2, 12]: No effect | Effect in FR4 operant self-administration ([2]; GET73, same model): did not demonstrate any effects | Concentration inhibiting CHPG-induced increase of glutamate in hippocampal slices (mGluR5 [11]): 500 nM | Minimum effective concentration for neuroprotective effects [4]: 1 µM | Effect on PR operant self-administration of alcohol ([5]; GET73, same model): did not demonstrate any effects | Sucrose intake ([5]; PR, 50 mg/kg): significant reduction | Effective Doses mg/kg ([5]; limited to sucrose): 50 # mg/kg

O=C1CC[C@@]2(O)[C@H]3Cc4ccc(O)c5c4[C@@]2(CCN3CC2CC2)[C@H]1O5 [naltrexone]
Alcohol intake of sP rats [9]: reduced
